Measured values published in publication PMC8968665, “Verteporfin is a substrate-selective γ-secretase inhibitor that binds the amyloid precursor protein transmembrane domain” (The Journal of Biological Chemistry, 2022).
Entries after “also recorded” stand apart in the source; their conditions may differ.

Columns and labels:
[1] = 1D 1H NMR titration of empty LMPG micelles by verteporfin; conditions: empty 2.5% LMPG micelles, acyl chain methylene peak shifts, n = 1; read-out: KD, one verteporfin binding to one detergent micelle model
Source text: For this equation, Y is the total binding, Bmax is the maximum binding in the same units as Y, X is the added ligand in molar units, KD is the equilibrium dissociation constant in the same units as X. 1D NMR-binding curves were generated by directly inputting 1D chemical shift perturbations directly into the proper version of Equation 2. Peak height data, such as that quantified in Figures 4 and S4, were first generated using the peak-picking function in NMRFAM Sparky, and peak heights as a function of ligand concentration were used to generate a KD by addition into Equation 2.

[2] = tested on: T1, C99 T761A; test: TROSY NMR titration of C99 T761A mutant by verteporfin; type: binding, human; conditions: LMPG micelles, up to 300 µM verteporfin, n=1
T1 construct: the transmembrane 99 residue C-terminal (C99) domain; hexa-His; made in house
Experimental: (§1) A Bruker Avance III 600 MHz NMR spectrometer equipped with a cryoprobe (CPTCI) and automated sample changer (SampleJet) was used to collect NMR spectra. Sample details are described above. For high-throughput screening data collection, the ^15N-^1H BEST-TROSY (b_trosy3gpph.2) experiment with 64 scans for each of 96 increments and a relaxation delay of 200 ms was run at 318 K for a total data acquisition time of 35 min per sample. To achieve enhanced signal-to-noise ratio, follow-up titrations and control experiments were conducted using the BEST-TROSY pulse program with 200 scans per 96 increments at 318 K, for a total data acquisition time of 110 min per sample. Data were processed using Bruker Topspin 3.6 using a Gaussian window function with a line broadening of -10 and a Gaussian max of 0.1 in both dimensions. NMR data were then further processed and analyzed using NMR-FAM SPARKY, plotted using GraphPad Prism 9, and prepared for publication figures using Affinity Designer.

[3] = tested on: T2, C99 L723A; test: TROSY NMR titration of C99 L723A mutant by verteporfin; type: binding, human; conditions: LMPG micelles, up to 300 µM verteporfin, n=1
T2 construct: the transmembrane 99 residue C-terminal (C99) domain; hexa-His; made in house
Experimental: as §1

[4] = tested on: T3, C99; test: Glutaraldehyde cross-linking of verteporfin–C99 mixtures; design: species or system human; conditions: LMPG micelles, versus DMSO control, n=3
T3 construct: the transmembrane 99 residue C-terminal (C99) domain; made in house; host or cells: E. coli BL21DE3, pET21b
Experimental: C-terminally His-tagged C99 was expressed from E. coli as mentioned above, and the sample was eluted into a buffer containing 0.1% w/v LMPG, 350 mM Imidazole, 100 mM NaCl, pH 7.8. The protein sample was buffer swapped into GA X-linking buffer containing 0.25% w/v LMPG, 250 mM imidazole, 100 mM NaCl, pH 7.8, and the protein was concentrated to a stock of 300 μM C99. Protein stocks were either used right away or flash frozen in LN2 and stored at −80 °C until further use.
On the day of the experiment, fresh glutaraldehyde (from 25% w/v ampoule) was used to prepare serial dilutions and stored on ice. Reaction volumes were set at 50 μl, containing 30 μM C99, 25 mM Imidazole, 100 mM NaCl, pH 7.8, and 2.5% w/v LMPG. For a typical GA reaction setup, the following components were added to Eppendorf tubes in this specific order: 5 μl of 300 μM C99 was added to the bottom of the tube, followed by 6 μl of 20% w/w LMPG solution, then the sample was diluted to 50 μl using 39 μl of GA X-linking buffer. The sample was mixed by vortex and allowed to sit for at least 30 min. After incubation, 1 μl of Verteporfin stock (typically 10 mM in DMSO) was added to the mixture, vortexed, and allowed to incubate for at least another 30 min in the dark. […] Then, SDS loading buffer was added directly to the reaction tubes, and the samples were visualized using SDS-PAGE and analyzed by densitometry using ImageJ. […]

[5] = molecular target: T4, γ-secretase cleavage of C100-Flag (C99) (Homo sapiens, UniProt P05067); test: γ-Secretase IC50 measurement, Aβ40 sandwich ELISA; type: biochemical; conditions: 1 nM purified γ-secretase, 2 µM C100-Flag, 2 h, 37 °C, n=1, error of the fit; read-out: IC50, inhibition of Aβ40 production
T4 construct: C100 is C99 with an added N-terminal Met residue; made in house
T4 sequence (P05067 672-770 limits assumed): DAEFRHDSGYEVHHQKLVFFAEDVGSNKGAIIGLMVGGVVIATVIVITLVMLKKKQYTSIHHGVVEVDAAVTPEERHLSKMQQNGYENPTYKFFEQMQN
Experimental: Purified γ-secretase was diluted in standard assay buffer to specified concentrations and incubated at 37 °C for 30 min, followed by the addition of stock solution of verteporfin in DMSO to achieve various final verteporfin concentrations and 2% final DMSO concentration. Purified C99 FLAG was then added to start the proteolytic reactions, which were incubated for 2 h at 37 °C. The concentrations of Aβ40 produced during the proteolysis of C100 FLAG by γ-secretase were determined using a specific sandwich ELISA (Invitrogen). Aβ40 concentrations were plotted as a function of verteporfin concentration, and the resultant sigmoidal curves were fitted to Equation 5 to determine IC50 values ([80], [83]).(5) Y=Min+(Max−Min)/1+(X/IC50)^HillCoefficient

[6] = Verteporfin aggregation and LMPG micelle size (DLS, 1D 1H NMR); type: physicochemical
Experimental: Samples were made according to NMR sample conditions. Solutions were first filtered with a 0.2 μm syringe filter then centrifuged at […] to remove insoluble debris. The solution was then added to the inner chamber of the disposable DLS cuvette. The disposable DLS cuvette was capped and loaded in the DLS instrument. Experiments were carried out at 25 °C. The DLS software (Dynamics 7.5 software; Wyatt Technologies) calculates an apparent hydrodynamic radius (Rh) via the Stokes–Einstein equation (Equation 6):(6) Rh=kT/6πηDt where k is Boltzmann’s constant, T is the absolute temperature, η is sample viscosity, and Dt is the diffusion coefficient. The apparent molecular weight of the detergent or verteporfin particles was calculated in the Dynamics software, as based on the measured apparent radius of hydration, using the assumption that the density of the particle was similar to that of a globular protein.

## verteporfin
[1]
  Kd: 53 ± 21 µM
[2]
  binding to C99 T761A: complete lack of binding; also recorded: binding was disrupted
[3]
  binding to C99 L723A: nearly complete lack of binding; also recorded: binding was disrupted
[4]
  change in C99 oligomeric state (cross-linking): no change in oligomeric state; also recorded: no increase in higher-order C99 species
[5]
  IC50: 15 ± 1 µM
[6]; 0 to 200 μM verteporfin, 2.5% LMPG, n = 3
  effect on LMPG micelle particle size (DLS): only modest effects on micelle particle size; also recorded: insensitive
[6]; 100 μM verteporfin, LMPG below CMC, pH 6.5
  state of verteporfin in micelle-free aqueous solution (1H NMR line width): aggregate formation
[6]; 100 μM verteporfin, n = 3
  LMPG concentration at which soluble verteporfin aggregates are fully dispersed (DLS): 50 mM
